Laboratory results from US8263607B2, “1-substituted tetrahydroisoquinoline compound” (Astellas Pharma Inc., priority 2007, dated 2012).

Columns and labels:
[1] = test system: CRD-induced abdominal flexion reflex behaviors; test: Abdominal pain model (CRD-induced abdominal pain in rats); assay type: in vivo, rat (Wistar, male); conditions: 10 mg/kg oral, 30 min before distension; abdominal flexion reflex behaviors at internal pressure of 45 mmHg
Method: Improving effects of the compounds of the present invention on digestive tract pain were confirmed by assay of CRD-induced abdominal pain in rats. The rat CRD-induced abdominal pain assay was carried out by a modification of the method described in the literature [Neurogastroenterol. Motil. 15: 363-369 (2003)]. When stimulation of constant internal pressure is applied to the colorectum of an animal by inflation of a 6-cm long balloon inserted into the anus of the rat (Wistar, male, 250-350 g), abdominal flexion reflex behaviors are induced due to abdominal pain. A frequency of reflex behaviors occurring during distension stimulation of 5 minutes was counted to estimate an abdominal pain-inhibitory action of the test compound. The test compound was orally administered 30 minutes before the initiation of distension stimulation. Estimation of the test compound was made by calculating an inhibition rate (%) of abdominal flexion reflex behaviors on the vehicle-treated group.

[2] = test system: loperamide-induced bead transit delay; test: Spastic constipation model (loperamide-induced colorectal bead transit delay test in mice); assay type: in vivo, mouse (ddY, male); conditions: 3 mg/kg oral, concurrently with loperamide 0.3 mg/kg s.c.; bead excretion time
Method: A 3-mm diameter glass bead is deeply inserted at a depth of 2 cm into the anus of the mouse (ddY, male, 6 weeks old), and the time taken for excretion of the bead is measured. […] With improving effects on the loperamide-induced bead transit delay, a bowel movement-improving action of the test compound on spastic constipation was evaluated. The test compound was orally administered concurrently with administration of loperamide (30 minutes before the insertion of the bead). The assessment of the test compound was made from calculation of an improvement rate in the bead excretion time of the test compound-treated/loperamide-treated group, by taking the bead excretion time of the non-test compound treated/non-loperamide treated (vehicle-treated/vehicle-treated) group as 100%, and by taking the bead excretion time of the non-test compound treated/loperamide-treated (vehicle-treated/loperamide-treated) group as 0%.

[3] = test system: mechanical allodynia in L5/L6 spinal nerve-ligated rats; conditions: known; cited from earlier work
[4] = test system: formalin-induced pain behaviors; test: Nociceptive pain model (mouse formalin test); assay type: in vivo, mice (ddY, male); conditions: 100 mg/kg oral, 30 min before formalin; pain behaviors 15 to 25 min after formalin, vs vehicle
Method: A mouse formalin test was carried out by a modification of the method as described in the literature [Murakami et al., Eur. J. Pharmacol. 419: 175-181 (2001)]. When 20 μL of 2.0% formalin was subcutaneously administered to the paw pads of mice (ddY, male, 5 weeks old), pain behaviors (limb withdrawal and licking behaviors) were induced in the treated animal limbs. From 15 to 25 minutes after the administration of formalin, the time taken for the onset of pain behaviors was measured to thereby evaluate the inhibitory action of the test compound on pain behaviors of animals. The test compound was orally given 30 minutes prior to the administration of formalin. […] Inhibition rate(%)=100−(mean onset time of pain behaviors in test compound-treated group)/(mean onset time of pain behaviors in vehicle-treated group)×100

[5] = test system: mechanical allodynia in L5/L6 spinal nerve-ligated rats; test: Neuropathic pain model (antiallodynic effects in L5/L6 spinal nerve-ligated rats, von Frey hair test); assay type: in vivo, rats (SD, male); conditions: 30 to 60 min before measurement, response threshold, ipsilateral 0% / contralateral 100% of vehicle group
Method: The antiallodynic effects of the compounds of the present invention were confirmed by assessing the analgesic action in L5/L6 spinal nerve-ligated rats. The assessment was carried out by the method of Kim and Chung (Pain 50, 355-363, 1992) with some modifications.
Under pentobarbital anesthesia, the left L5 and L6 spinal nerves of male SD rats (5-6 weeks old) were tightly ligated with silk thread. For the assessment of analgesic action, the von Frey hair test was adopted. That is, the animal's hind paw pad was pricked with hair and the lowest strength of hair for limb withdrawal response was designated as a response threshold (log gram) to mechanical stimulation. […] On the day before the assessment of the test compound, the response threshold before administration of the test compound was measured. The animals were divided into 4 to 5 groups such that mean value differences of response thresholds between groups before administration of the test compound and within-group variation become small. In the assessment of the test compound, the response threshold after administration of the test compound was measured. The test compound was orally administered 30 to 60 minutes before the measurement of the response threshold. […] Recovery rate(%)={(mean of response threshold in test compound-treated group)−(mean of response threshold of ipsilateral paw in vehicle-treated group)}/{(mean of response threshold of contralateral paw in the vehicle-treated group)−(mean of response threshold of ipsilateral paw in the vehicle-treated group)}×100

SMILES	Inhibition rate [1]	Inhibition rate [2]	recovery of mechanical allodynia with treatment of morphine [3]	Inhibition rate [4]	Recovery rate (%) (dose) ([5]; 10 mg/kg oral)	Recovery rate (%) (dose) ([5]; 30 mg/kg oral)
COc1ccc2c(c1)CCN(C(=O)CNCC1(O)CCCCC1)[C@H]2C(C)C [Example 415]	60%	88%				
CN1CC[C@]23c4c5ccc(O)c4O[C@H]2[C@@H](O)C=C[C@H]3[C@H]1C5 [morphine]			only a partial recovery			
COc1cccc2c1[C@H](c1ccccc1)N(C(=O)CNC[C@@H](C)O)CC2 [Example 435]	46%	67%				
CCc1ccc2c(c1)[C@H](COC)N(C(=O)CNCC1(O)CCCCC1)CC2 [Example 436]	56%	59%		55%	156%	
COC[C@@H](O)CNCC(=O)N1CCc2ccccc2[C@@H]1C1CCCCC1 [Example 157]	59%	40%		52%		97%
COc1cccc2c1[C@H](c1ccccc1)N(C(=O)CNC[C@@H](C)O)CC2 [Example 575]				77%	83%	
O=C(CNCC1(O)CCCCC1)N1CCc2ccccc2[C@@H]1C1CCCCC1 [Example 1, 1-[({2-[(1S)-1-cyclohexyl-3,4-dihydroisoquinolin-2(1H)-yl]-2-oxoethyl}amino)methyl]cyclohexanol]				52%		95%
COC[C@@H](O)CNCC(=O)N1CCc2ccccc2[C@@H]1Cc1ccccc1C(F)(F)F [Example 433]	43%	73%		60%	80%	
